Measurements published in patent US10041937B2, “Macrophage identification agent, and identification method, sorting method, evaluation method, screening method and kit using the macrophage identifier agent” (CANON KABUSHIKI KAISHA, priority 2013, dated 2018).

Assays:
[1] = test system: M1 macrophages and M2 macrophages differentiated from RAW264.7 cells; experiment: Identification of macrophage subtypes differentiated from mouse cell line RAW264.7; format: cell-based; settings: RAW264.7 derived M1 and M2
Procedure: The subtypes were identified by using the compound (1) in the same manner as in Example 1 except that the macrophage subtypes differentiated from the mouse bone marrow cells were changed to macrophage subtypes differentiated from a cell line established from mouse monocytic leukemia.
The culture of subtypes was performed with reference to NPL 9. Specifically, RAW264.7 cells purchased from American Type Culture Collection, that is, a cell line established from mouse monocytic leukemia, were subcultured several times, and the resultant cells were dispersed to a concentration of 3.3×10^4/mL in a D-MEM containing 10% FBS, 1% P/S and 1% MEM-NEAA, and 3.3×10^5 cells were seeded in a 100 mm dish. The cells were grown by incubation performed in the presence of 5% CO2 at 37° C. After 2 to 4 days, it was confirmed that an area of about to 70% of the bottom of the dish had been covered by the cells, the medium was then exchanged, and by adding 200 ng of interferon-γ and 1 μg of polyliposaccharide (both manufactured by Pepro Tech) to the medium, the cells were differentiated to the subtype M1. Besides, by adding 100 ng of IL-4, the cells were differentiated to the subtype M2. […]
A histogram was prepared by plotting fluorescence intensity obtained in the FITC channel on the abscissa and plotting the number of cells at each fluorescence intensity on the ordinate, which is shown in FIG. 9.

[2] = test system: M1 macrophages and M2 macrophages differentiated from THP-1 cells; experiment: Identification of macrophage subtypes differentiated from human cell line THP-1; format: cell-based
Procedure: The fluorescent signals derived from the compounds (3), (4), (6), (7), (9), (11) to (13), (15), (17), (19) to (26), (28), (30) to (33), (35), (36), (38), (42) to (45), (48) to (62), (65), (67), (74) to (76), (82), (83) and (85) and the comparative compounds (1) and (2) were measured in channels suitable to the respective compounds. Histograms were prepared by plotting fluorescence intensities obtained in the respective channels on the abscissa and plotting the numbers of cells at each fluorescence intensity on the ordinate. A difference between a fluorescence intensity (FM1) at a peak top of the histogram of the M1 macrophage and a fluorescence intensity (FM2) at a peak top of the histogram of the M2 macrophage is divided by a sum of a peak width (WM1) of the histogram of the M1 macrophage and a peak width (WM2) of the histogram of the M2 macrophage, so as to obtain a resolution R, which was used as an index of the identification ability for a subtype (see the following expression (1)). Resolution R=|FM1−FM2|/(WM1+WM2) Expression (1)
Based on the thus obtained values of the resolution R, the identification abilities for the subtypes of the compounds (3), (4), (6), (7), (9), (11) to (13), (15), (17), (19) to (26), (28), (30) to (33), (35), (36), (38), (42) to (45), (48) to (62), (65), (67), (74) to (76), (82), (83) and (85) and the comparative compounds (1) and (2) were evaluated as any of A to C according to the following criteria, and if the resolution R was 0.15 or more, the compound was determined to be good in the subtype identification.
The subtypes were identified by using the compound (1) in the same manner as in Example 1 except that the macrophage subtypes differentiated from the mouse bone marrow cells were changed to macrophage subtypes differentiated from a cell line established from human acute monocytic leukemia.
The culture of subtypes was performed with reference to NPL 10. Specifically, THP-1 cells purchased from JCRB Cell Bank of National Institute of Biomedical Innovation, that is, a cell line established from human acute monocytic leukemia, were subcultured several times, and the resultant cells were dispersed to a concentration of 5.0×10^5/mL in an RPMI1640 containing 10% FBS and 1% P/S, and 5.0×10^6 cells were seeded in a 100 mm dish. The monocytes were differentiated into macrophages by incubating the resultant in the presence of 5% CO2 at 37° C. for 2 days with 500 ng of PMA added thereto. After exchanging the medium, by adding 200 ng of interferon-γ and 1 μg of polyliposaccharide (both manufactured by Pepro Tech) to the medium, the cells were differentiated to the subtype M1. Besides, by adding 200 ng of IL-4 and IL-13, the cells were differentiated to the subtype M2. After incubation performed in the presence of 5% CO2 at 37° C. for 24 hours, the resultant was rinsed with PBS, and PBS containing 0.25% trypsin and 1 mM EDTA (ethylenediaminetetraacetic acid) was used for collecting, from the dish, the macrophages having been differentiated to the subtypes M1 and M2.
Specifically, fluorescent signals derived from the compounds (1) (3) (4) (12) and (15) were measured by using the channels which are appropriate for each of the compounds and the identification abilities for the subtypes of the compounds were evaluated based on the values of the resolution R.

[3] = test system: mixture of the M1 macrophages and the M2 macrophages; experiment: Sorting of subtypes from a mixture of M1 and M2 macrophages with an FACS apparatus; format: cell-based, mouse; settings: compound 1 μM

CCOC(=O)CCN1C(=O)/C(=C\c2ccc3c(c2)C2CCCC2N3CC)SC1=S (centres unmarked) [compound (1)]
subtype more strongly stained [1]: the M1 macrophages were stained more strongly than the M2 macrophages
Resolution ratio R ([2]; M1 vs M2 macrophages differentiated from THP-1 cells, channel listed per compound (Table 6)): 0.409
Evaluation of macrophage subtype identification ([2]; M1 vs M2 macrophages differentiated from THP-1 cells, class based on resolution R (Table 6)): B (the compound is good in the subtype identification (namely, the resolution R is 0.15 or more and less than 0.5))
Peak position of M1 macrophage ([2]; THP-1-derived M1 macrophages, fluorescence intensity peak by flow cytometry in the channel listed per compound (Table 6)): 58.1
Peak position of M2 macrophage ([2]; THP-1-derived M2 macrophages, fluorescence intensity peak by flow cytometry in the channel listed per compound (Table 6)): 33.4
Selectivity ([2]; subtype strongly stained, THP-1-derived macrophages (Table 6)): M1
sorting of identified M1 and M2 macrophages ([3]; FACS apparatus): could be each sorted with an FACS apparatus
subtype more strongly stained ([3]; mixed M1 and M2 macrophages): stain the M1 macrophages more strongly than the M2 macrophages
